Laboratory results from patent US20240148722A1, “SMALL MOLECULES THAT BIND TO TDP-43 FOR THE TREATMENT OF ALS AND RELATED DISORDERS” (Biohaven Therapeutics Ltd., priority 2021, published 2024).

Target: TDP-43 1-260 (Homo sapiens, UniProt Q13148)
Test: TDP-43 alpha-screen assay with bt-TAR32
Type: binding
Conditions: for IC50: bt-TAR32 0.125 nM, 3 h at room temperature, read-out: Activity (μM) in the TDP-43-DNA alpha-screen assay
Experimental: Alpha-screen assay. […] Briefly, assays contained TDP-43 1-260 (15 ng/mL, 0.27 nM), 10 mg/mL of both streptavidin donor beads and anti-GST acceptor beads with various concentrations of bt-TAR32 (˜18 to +14 in the HIV1 LTR) and test compound in a final volume of 20 mL of 25 mM Tris, 0.1% CHAPS, pH 7.4 in white, opaque low volume 384-well plates. After 3 h incubation at room temperature, the AlphaScreen signal was measured using a Synergy 2 plate reader (Biotek, Winooski, VT). […] Nonspecific binding was determined in the presence of 10 mM bt-TDP43 and was less than 10% of total binding. IC50 values were obtained from nonlinear regression fits of the data to a one-site binding model using Graph Pad Prism, version 5.0 (GraphPad Software, San Diego, CA). Comparison of competitive inhibition and mixed type inhibition models were evaluated using the F-test on global fits of the data also in Graph Pad Prism, version 5.0.

Sequence of TDP-43 1-260 (Q13148 1-260): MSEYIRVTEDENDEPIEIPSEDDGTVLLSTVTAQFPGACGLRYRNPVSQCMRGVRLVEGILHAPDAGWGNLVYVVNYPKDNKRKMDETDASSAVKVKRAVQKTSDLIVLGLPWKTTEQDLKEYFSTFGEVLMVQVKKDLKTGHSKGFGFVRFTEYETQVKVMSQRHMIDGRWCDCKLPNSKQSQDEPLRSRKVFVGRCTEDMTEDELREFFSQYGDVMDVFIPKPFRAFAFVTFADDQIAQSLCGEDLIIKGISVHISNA

| Compound | IC50 | other results |
| --- | --- | --- |
| COc1ccc(-c2cc(NCCCN(C)CCCN)cc(-c3ccc(N4CCN(CC5CC5)CC4)cc3)n2)cc1 [Example 10] | 0.06 µM |  |
| COc1ccc(-c2cc(NC3CCNCC3)cc(-c3ccc(N4CCNCC4)cc3)n2)cc1 [Example 39] | 0.19 µM |  |
| COc1ccc(-c2cc(NCCCN(C)CCCN)cc(-c3ccc(CN4CCCC4)cc3)n2)cc1 [Example 24] | 0.09 µM |  |
| CN(C)CCCNc1cc(-c2ccc(OCCn3cccn3)cc2)nc2ccccc12 [Example 84] | 0.55 µM |  |
| COc1ccc(-c2cc(N[C@@H]3CCNC[C@@H]3OC)cc(-c3ccc(N4CCN(C)CC4)cc3)n2)cc1 [Example 75] | 0.36 µM |  |
| COc1ccc(-c2cc(NC3CCN(C4CCN(C)CC4)CC3)cc(-c3ccc(N4CCNCC4)cc3)n2)cc1 [Example 36] | 0.15 µM |  |
| CN(C)CCCNc1cc(-c2ccc(OCCCN3CCCC3)cc2)nc2ccccc12 [Example 82] | 0.11 µM |  |
| CN(C)CCCNc1cc(-c2ccc(N3CCNCC3)cc2)nc(-c2ccc(N3CCCC3)nc2)c1 [Example 44] | 7.95 µM |  |
| CNc1ccc(-c2cc(NCCCN(C)CCCN)cc(-c3ccc(OC)cc3)n2)cc1 [Example 19] | 0.08 µM |  |
| COc1ccc(-c2cc(NCC3CCN(CC4CNC4)CC3)cc(-c3ccc(N4CCN(C)CC4)cc3)n2)cc1 [Example 29] | 0.11 µM |  |
| COc1ccc(-c2cc(NCCN(C)CCN)cc(-c3ccc(N4CCNCC4)cc3)n2)cc1 [Example 70] | 0.63 µM |  |
| COc1ccc(-c2cc(NCCCN(C)C)cc(-c3cccc(OCCCN(C)C)c3)n2)cc1 [Example 89, 2-(3-(3-(dimethylamino)propoxy)phenyl)-N-(3-(dimethylamino)propyl)-6-(4-methoxyphenyl)pyridin-4-amine] | 0.17 µM |  |
| COc1ccc(-c2cc(N(C)C3CCNCC3)cc(-c3ccc(N4CCNCC4)cc3)n2)cc1 [Example 41] | 0.33 µM |  |
| COc1ccc(-c2cc(NC3CCN(CC4CNC4)CC3)cc(-c3ccc(N4CCN(C)CC4)cc3)n2)cc1 [Example 12, N-(1-(azetidin-3-ylmethyl)piperidin-4-yl)-2-(4-methoxyphenyl)-6-(4-(4-methylpiperazin-1-yl)phenyl)pyridin-4-amine] | 0.06 µM |  |
| COc1ccc(-c2cc(N[C@H]3CC[C@H](N)CC3)cc(-c3cccc(OCCN4CCCC4)c3)n2)cc1 [Example 90] | 0.09 µM |  |
| COc1ccc(-c2cc(NCCCc3cnc[nH]3)cc(-c3ccc(N4CCN(C)CC4)cc3)n2)cc1 [Example 48] | 3.77 µM |  |
| COc1ccc(-c2cc(NCCCN)cc(-n3cc4c(n3)CNC4)n2)cc1 [Example 43] | 0.46 µM |  |
| NCCCNc1cc(-c2ccc(N3CCNCC3)cc2)nc2ccsc12 [Example 86] | 0.2 µM |  |
| COc1ccc(-c2cc(NCCCN(C)CCCN)cc(-c3ccc(N4CCCCC4)cc3)n2)cc1 [Example 69] | 0.74 µM |  |
| COc1ccc(-c2cc(NCCCN(C)C)cc(-c3cccc(OCCN(C)C)c3)n2)cc1 [Example 92] | 0.34 µM |  |

| Compound | IC50 | other results |
| --- | --- | --- |
| NCCCNc1n[nH]c2cc(-c3ccc(N4CCNCC4)cc3)ccc12 [Example 87] | 0.15 µM |  |
| COc1ccc(-c2cc(NC3CCN(C4CCC(N)CC4)CC3)cc(-c3ccc(N4CCNCC4)cc3)n2)cc1 (centres unmarked) [Example 3] | 0.03 µM | increase in potency versus Compound I (average) (same alpha-screen assay using bt-TAR32, side-by-side, three independent assays, average): 14 X; increase in potency versus Compound I (same alpha-screen assay using bt-TAR32, side-by-side, three independent assays, range): 11-18 X |
| COc1ccc(-c2cc(NCC(F)(F)CN)cc(-c3ccc(N4CCN(C)CC4)cc3)n2)cc1 [Example 63, N-(3-amino-2,2-difluoropropyl)-2-(4-methoxyphenyl)-6-(4-(4-methylpiperazin-1-yl)phenyl)pyridin-4-amine] | 1.49 µM |  |
| N[C@H]1C[C@H](Nc2cc(-c3ccc(N4CCNCC4)cc3)nc3ccsc23)C1 [Example 85, (1r,3r)-N1-(5-(4-(piperazin-1-yl)phenyl)thieno[3,2-b]pyridin-7-yl)cyclobutane-1,3-diamine] | 0.16 µM |  |
| COc1cccc(-c2cc(NCCCN(C)CCCN)cc(-c3ccc(N4CCNCC4)cc3)n2)c1 [Example 51] | 0.64 µM |  |
| Cis-N1-(2-(3-(2-(pyrrolidin-1-yl)ethoxy)phenyl)-6-(4-methoxyphenyl)pyridin-4-yl)cyclobutane-1,3-diamine [Example 94] | 0.49 µM |  |
| COc1ccc(-c2cc(NC3CCN(C4CCN(C)CC4)CC3)cc(-c3ccc(N4CCNCC4)cc3)n2)cc1 [Example 27, N-(2-(4-methoxyphenyl)-6-(4-(piperazin-1-yl)phenyl)pyridin-4-yl)-1′-methyl-[1,4′-bipiperidin]-4-amine] | 0.11 µM |  |
| COc1ccc(-c2cc(NCCCN3CCCCC3)cc(C3=CCNCC3)n2)cc1 [Example 61] | 1.87 µM |  |
| Ethyl 4-(2-(4-methoxyphenyl)-6-(4-(piperazin-1-yl)phenyl)pyridin-4-ylamino)piperidine-1-carboxylate [Example 49] | 5.78 µM |  |
| COc1ccc(-c2cc(NCC3CCCN3)cc(-c3ccc(N4CCC(C)CC4)cc3)n2)cc1 (centres unmarked) [Example 57] | 2.85 µM |  |
| COc1ccc(-c2cc(N[C@H]3CC[C@H](N)CC3)cc(-c3cccc(OCCN(C)C)c3)n2)cc1 [Example 93, trans-N1-(2-(3-(2-(dimethylamino)ethoxy)phenyl)-6-(4-methoxyphenyl)pyridin-4-yl)cyclohexane-1,4-diamine] | 0.11 µM |  |
| COc1ccc(-c2cc(NCCCN(C)CCCN)cc(-c3ccc(N4CCN(C)CC4)cc3)n2)cc1 [Example 32] | 0.13 µM |  |
| COc1ccc(-c2cc(NCCCN(C)CCCN)cc(-c3ccc(N4CCNCC4)cc3)n2)cc1 [Example 2, N-{3-[(3-aminopropyl)(methyl)amino]propyl}-2-(4-methoxyphenyl)-6-[4-(piperazin-1-yl)phenyl]pyridin-4-amine] | 0.03 µM |  |
| COc1ccc(-c2cc(NCC3CCN(C4CCNCC4)C3)cc(-c3ccc(N4CCN(C)CC4)cc3)n2)cc1 (centres unmarked) [Example 22] | 0.08 µM |  |
| COc1ccc(-c2cc(NCCCN3CCC(CN)CC3)cc(-c3ccc(N4CCNCC4)cc3)n2)cc1 [Example 18] | 0.07 µM |  |
| COc1ccc(-c2cc(NCCCN3CCNCC3)cc(-c3ccc(N4CCN(C)CC4)cc3)n2)cc1 [Example 72] | 0.55 µM |  |
| COc1ccc(-c2cc(NCCN3CCNCC3)cc(-c3ccc(N4CCNCC4)cc3)n2)cc1 [Example 74] | 0.49 µM |  |
| COc1ccc(-c2cc(NCCCNC3CC(N)C3)cc(-c3ccc(N4CCNCC4)cc3)n2)cc1 (centres unmarked) [Example 6] | 0.04 µM |  |
| COc1ccc(-c2cc(NC3CCNCC3(F)F)cc(-c3ccc(N4CCN(C)CC4)cc3)n2)cc1 (centres unmarked) [Example 60] | 11 µM |  |
| COc1ccc(-c2cc(NCCCN(C)CCCN)cc(OCCN3CCCC3)n2)cc1 [Example 37, N-{3-[(3-aminopropyl)(methyl)amino]propyl}-2-(4-methoxyphenyl)-6-[2-(pyrrolidin-1-yl)ethoxy]pyridin-4-amine] | 0.16 µM |  |

| Compound | IC50 | other results |
| --- | --- | --- |
| COc1ccc(-c2cc(NCCCN(C)CCCN)cc(-c3ccc(CN4CCNCC4)cc3)n2)cc1 [Example 20] | 0.08 µM |  |
| COc1ccc(-c2cc(NC3CC4CCC(C3)N4C)cc(-c3ccc(N4CCN(C)CC4)cc3)n2)cc1 (centres unmarked) [Example 58] | 2.85 µM |  |
| COc1cc2c(NCCCN(C)C)ccnc2cc1OCCN1CCCC1 [Example 83] | 0.19 µM |  |
| COc1ccc(-c2cc(NCC3CCN(CC4CNC4)C3)cc(-c3ccc(N4CCN(C)CC4)cc3)n2)cc1 (centres unmarked) [Example 34] | 0.14 µM |  |
| COc1ccc(-c2cc(NCCCN(C)C)cc(-c3ccc(N4CCN(C)CC4)cc3)n2)cc1 [Example 40] | 0.21 µM |  |
| COc1ccc(-c2cc(NCCCOCCCN)cc(-c3ccc(N4CCNCC4)cc3)n2)cc1 [Example 66] | 1.2 µM |  |
| COc1ccc(-c2cc(NCCCN(C)CCCN)cc(-c3cccc(N4CCNCC4)c3)n2)cc1 [Example 7, N-{3-[(3-aminopropyl)(methyl)amino]propyl}-2-(4-methoxyphenyl)-6-[3-(piperazin-1-yl)phenyl]pyridin-4-amine] | 0.05 µM |  |
| COc1ccc(-c2cc(NCCCN(C)CCCN)cc(-c3ccc(N4CCN(C(=O)OC(C)(C)C)CC4)cc3)n2)cc1 [Example 38] | 0.17 µM |  |
| CNS(=O)(=O)c1ccc(-c2cc(NCCCN(C)CCCN)cc(-c3ccc(OC)cc3)n2)cc1 [Example 53] | 4.17 µM |  |
| COc1ccc(-c2cc(NCCCN(C)C)cc(-c3ccc(OCCCN(C)C)cc3)n2)cc1 [Example 80] | 0.21 µM |  |
| COc1ccc(-c2cc(NCCOCCN)cc(-c3ccc(N4CCNCC4)cc3)n2)cc1 [Example 73, N-(2-(2-aminoethoxy)ethyl)-2-(4-methoxyphenyl)-6-(4-(piperazin-1-yl)phenyl)pyridin-4-amine] | 0.49 µM |  |
| CN(CCCN)CCCNc1cc(-c2ccc(N3CCNCC3)cc2)nc(-c2ccc(N3CCNCC3)cc2)c1 [Example 1] | 0.02 µM |  |
| COc1ccc(-c2cc(NCCCN(C)CCCN)cc(-c3ccc(N4CCN(C)CC4)cc3)n2)cc1 [Example 23] | 0.08 µM |  |
| CN(CCCN)CCCNc1cc(-c2ccc(-c3ccncc3)cc2)nc(-c2ccc(N3CCNCC3)cc2)c1 [Example 77] | 0.13 µM |  |
| COc1ccc(-c2cc(NC3(CCN)CC3)cc(-c3ccc(N4CCNCC4)cc3)n2)cc1 [Example 54] | 3.56 µM |  |
| COc1ccc(-c2cc(N[C@H]3C[C@H](N)C3)cc(-c3ccc(CN(C)CCN(C)C)o3)n2)cc1 [Example 96, N1-{2-[5-({[2-(dimethylamino)ethyl](methyl)amino}methyl)furan-2-yl]-6-(4-methoxyphenyl)pyridin-4-yl}cyclobutane-1,3-diamine] | 2.4 µM |  |
| CCOC(=O)N1CCC(Nc2cc(-c3ccc(OC)cc3)nc(-c3ccc(N4CCNCC4)cc3)c2)CC1 [Example 50] | 9.49 µM |  |
| COc1ccc(-c2cc(NC3CCN(CC4CCNC4)CC3)cc(-c3ccc(N4CCNCC4)cc3)n2)cc1 (centres unmarked) [Example 30] | 0.12 µM |  |
| CN(CCCN)CCCNc1cc(C#CC2CCNCC2)nc(-c2ccc(N3CCNCC3)cc2)c1 [Example 11, N-{3-[(3-aminopropyl)(methyl)amino]propyl}-2-[4-(piperazin-1-yl)phenyl]-6-[2-(piperidin-4-yl)ethynyl]pyridin-4-amine] | 0.06 µM |  |
| COc1ccc(-c2cc(/N=N\C3CCNCC3)cc(-c3ccc(N4CCNCC4)cc3)n2)cc1 [Example 64] | 1.48 µM |  |
